pIC50: −log10 of the molar value. Active and inactive are the calls of the source. No cut-off for these calls is given here. Non-standard residues stand in square brackets, D forms with d. Residues, ends and D or L forms follow the SMILES beside them. *: point of attachment. Dolaproine = CO[C@@H]([C@@H]1CCCN1)[C@@H](C)C(=O)O; Dil = CC[C@H](C)[C@H](NC)[C@@H](CC(=O)O)OC; X1 = C[C@@H](N*)[C@@H](O)c1ccccc1; NMeV = CN[C@H](C(=O)O)C(C)C
Experiments:
[1] = tested on: Lewis lung carcinoma cell line; assay: Antitumor activity against mouse LLC cells allografted in C57/BL6 mouse assessed as reduction in tumor weight at 0.1 mg/kg, iv administered on day 7, 11 and 14 post transplantation measured on day 20 relative to control; type: functional
[2] = tested on: Cancer cell lines; assay: Cytotoxicity against human non-small cell lung cancer cells at 0.5 to 1 nM after 4 days by XTT assay; type: functional, cell-based
[3] = tested on: MDA-MB-231; assay: Antiproliferative activity against human MDA-MB-231 cells after 4 days by XTT assay; type: functional, cell-based; conditions: MDA-MB-231, 96 h
[4] = tested on: KB; assay: Antiproliferative activity against human KB cells after 4 days by XTT assay; type: functional, cell-based; conditions: 96 h
[5] = tested on: A549; assay: Antiproliferative activity against human A549 cells after 4 days by XTT assay; type: functional, cell-based; conditions: A549, 96 h
[6] = tested on: Lewis lung carcinoma cell line; assay: Antitumor activity against mouse LLC cells allografted in C57/BL6 mouse assessed as reduction in tumor weight at 0.5 mg/kg, iv administered on day 7, 11 and 14 post transplantation measured on day 20 relative to control; type: functional
[7] = tested on: Mus musculus; assay: Toxicity in mouse LLC cells allografted C57/BL6 mouse model assessed as change in body weight at 0.5 mg/kg, iv administered on day 7, 11 and 14 post transplantation measured on day 20; type: organism-based; design: dose 0.5 mg/kg, route intravenous; conditions: in vivo
[8] = tested on: MDA-MB-231; assay: Ratio of IC50 for human MDA-MB-231 cells to IC50 for human MDA-MB-231 cells in presence of Escherichia coli beta-glucuronidase; type: functional
[9] = tested on: KB; assay: Ratio of IC50 for human KB cells to IC50 for human KB cells in presence of Escherichia coli beta-glucuronidase; type: functional
[10] = tested on: A549; assay: Ratio of IC50 for human A549 cells to IC50 for human A549 cells in presence of Escherichia coli beta-glucuronidase; type: functional
[11] = Prodrug conversion in phosphate buffer at pH 7 assessed as MMAE and 4-hydroxy-3-nitrobenzyl alcohol formation after 40 mins by HPLC method in presence of Escherichia coli beta-glucuronidase; type: physicochemical; conditions: pH 7, 40 min
[12] = tested on: Serum; assay: Stability in bovine serum at 0.5 mg after 48 hrs by HPLC method; type: ADME, cell-free, Bos taurus; conditions: cattle
[13] = tested on: MDA-MB-231; assay: Antiproliferative activity against human MDA-MB-231 cells after 4 days by XTT assay in presence of Escherichia coli beta-glucuronidase; type: functional, cell-based; conditions: MDA-MB-231, 96 h
[14] = tested on: KB; assay: Antiproliferative activity against human KB cells after 4 days by XTT assay in presence of Escherichia coli beta-glucuronidase; type: functional, cell-based; conditions: 96 h
[15] = tested on: A549; assay: Antiproliferative activity against human A549 cells after 4 days by XTT assay in presence of Escherichia coli beta-glucuronidase; type: functional, cell-based; conditions: A549, 96 h
[16] = Cytotoxicity against human non-small cell lung cancer cells at 1 nM after 4 days by XTT assay in presence of Escherichia coli beta-glucuronidase; type: functional, Cancer cell lines

Drug metabolism [11] | Stability [12] | pIC50 [13] | pIC50 [14] | pIC50 [15] | SMILES | fold change (FC) [1] | Activity [2] | pIC50 [3] | pIC50 [4] | pIC50 [5] | fold change (FC) [6] | Activity [7] | Ratio IC50 [8] | Ratio IC50 [9] | Ratio IC50 [10] | Activity [16] [%]
 |  |  |  |  | CC[C@H](C)[C@@H]([C@@H](CC(=O)N1CCC[C@H]1[C@H](OC)[C@@H](C)C(=O)N[C@H](C)[C@@H](O)c1ccccc1)OC)N(C)C(=O)[C@@H](NC(=O)[C@@H](NC)C(C)C)C(C)C (H-[NMeV]V[Dil][Dolaproine]-X1) | 1.5 | Active | 9.60 | 9.72 | 9.23 |  |  |  |  |  | 
Active | Stable | 9.66 | 9.80 | 9.28 | CC[C@H](C)[C@@H]([C@@H](CC(=O)N1CCC[C@H]1[C@H](OC)[C@@H](C)C(=O)N[C@H](C)[C@@H](O)c1ccccc1)OC)N(C)C(=O)[C@@H](NC(=O)[C@H](C(C)C)N(C)C(=O)OCc1ccc(O[C@@H]2O[C@H](C(=O)O)[C@@H](O)[C@H](O)[C@H]2O)c([N+](=O)[O-])c1)C(C)C |  | inactive | 7.68 | 7.68 | 7.63 | 1.5 | Non-toxic | 40 | 40 | 40 | 75
